Measured values taken from ChEMBL document CHEMBL1130780, “Synthesis of a cosalane analog with an extended polyanionic pharmacophore conferring enhanced potency as an anti-HIV agent” (Bioorg Med Chem Lett, 1998).

How the values were obtained:
CEM-SS [1] = experiment: Inhibitory activity against cytopathic effect of HIV-IIIB strain in CEM-SS cells.; type: functional, cell-based; settings: Homo sapiens
CEM-SS [2] = experiment: Inhibitory activity against cytopathic effect of VIHU(NSI) clinical isolate in CEM-SS cells.; type: functional, cell-based; settings: Homo sapiens
[3] = The compound was tested for inhibitory activity against gp120 binding to CD4 of peripheral blood lymphocytes (PBL); type: functional, Homo sapiens
[4] = The compound was tested for inhibitory against fusion of HL-2/3 cells towards HeLa-CD4-LTR-beta-gal cells.; type: functional, cell-based, Homo sapiens
CEM-SS [5] = experiment: Inhibitory activity against cytopathic effect of HIV-1RF in CEM-SS cells.; type: functional, cell-based; settings: Homo sapiens
CEM-SS [6] = experiment: The compound was tested for inhibition of HIV-1 attachment to CEM-SS cells.; type: functional, cell-based; settings: Homo sapiens

`CC(C)CCCC(C)[C@H]1CC[C@H]2[C@@H]3CCC4C[C@@H](CCC=C(c5cc(Cl)c(O)c(C(=O)O)c5)c5cc(Cl)c(O)c(C(=O)O)c5)CC[C@]4(C)[C@H]3CC[C@]12C` (stereo partly specified) showed an EC50 (CEM-SS [1]) of 3.4 µM, an EC50 (CEM-SS [2]) of 80.2 µM and an IC50 [3] of 7.8 µM.

In the case of `CC(C)CCCC(C)[C@H]1CC[C@H]2[C@@H]3CCC4C[C@@H](CCC=C(c5cc(Cl)c(OCc6ccc(C(=O)O)cc6)c(C(=O)O)c5)c5cc(Cl)c(OCc6ccc(C(=O)O)cc6)c(C(=O)O)c5)CC[C@]4(C)[C@H]3CC[C@]12C` (stereo partly specified), the IC50 [4] is reported as 2.7 µM, the EC50 (CEM-SS [5]) is reported as 0.55 µM and the IC50 (CEM-SS [6]) is reported as 72 µM.
